# Results from ChEMBL document CHEMBL1134193, “Initial structure-activity relationship of a novel class of nonpeptidyl GnRH receptor antagonists: 2-arylindoles” (Bioorg Med Chem Lett, 2001).
# Molecular target: T1, Gonadotropin-releasing hormone receptor (Rattus norvegicus, UniProt P30969)
# T1 sequence (P30969 whole entry): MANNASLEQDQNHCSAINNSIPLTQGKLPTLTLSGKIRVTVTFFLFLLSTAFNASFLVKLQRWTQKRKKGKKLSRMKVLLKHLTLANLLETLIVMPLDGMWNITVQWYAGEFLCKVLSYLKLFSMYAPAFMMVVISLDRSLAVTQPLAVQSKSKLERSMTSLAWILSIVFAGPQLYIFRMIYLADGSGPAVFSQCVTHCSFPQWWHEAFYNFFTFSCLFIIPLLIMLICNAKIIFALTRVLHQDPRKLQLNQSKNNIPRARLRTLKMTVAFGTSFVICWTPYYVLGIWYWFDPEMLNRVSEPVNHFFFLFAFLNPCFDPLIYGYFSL
# Assay: Ability to displace [125I]- - radio-labeled buserelin from rat Gonadotropin-releasing hormone receptor
# Settings: not given
row,Structure (SMILES),IC50
1,COc1ccc(-c2[nH]c3ccccc3c2CCNCCCCCc2ccc(O)cc2)cc1OC,2 µM
2,COc1ccc(-c2[nH]c3ccccc3c2CCNCCc2ccc(O)cc2)cc1OC,4 µM
3,COc1ccc(-c2[nH]c3ccccc3c2CCNCCCCCCc2ccc(O)cc2)cc1OC,10 µM
4,COc1ccc(-c2[nH]c3ccccc3c2CCNCCCc2ccc(O)cc2)cc1OC,6 µM
5,Cc1cccc(C)c1-c1[nH]c2ccccc2c1CCNCCCCc1ccc(O)cc1,1.7 µM
6,COc1ccc(-c2[nH]c3ccccc3c2CCNCCCCc2ccc(O)cc2)cc1OC,2 µM
7,COc1cc(OC)cc(-c2[nH]c3ccccc3c2CCNCCCCc2ccc(O)cc2)c1,0.7 µM
8,COc1ccc(-c2[nH]c3ccccc3c2CCNC[C@H](O)CCc2ccc(O)cc2)cc1OC,2 µM
9,Cc1ccc(-c2[nH]c3ccccc3c2CCNCCCCc2ccc(O)cc2)cc1,9 µM
10,Oc1ccc(CCCCNCCc2c(-c3cc4ccccc4s3)[nH]c3ccccc23)cc1,2.5 µM
11,CCc1cccc(-c2[nH]c3ccccc3c2CCNCCCCc2ccc(O)cc2)c1,0.9 µM
12,COc1ccc(-c2[nH]c3ccccc3c2CCNC(=O)CCCc2ccc([N+](=O)[O-])cc2)cc1OC,> 30 µM
13,COc1ccc(-c2[nH]c3ccccc3c2CCNCCCCc2ccc(OCc3ccccc3)cc2)cc1OC,30 µM
14,COc1ccc(-c2[nH]c3ccccc3c2CCNCCCCc2ccc([N+](=O)[O-])cc2)cc1OC,5 µM
15,Cc1ccccc1-c1[nH]c2ccccc2c1CCNCCCCc1ccc(O)cc1,0.5 µM
16,Oc1ccc(CCCCNCCc2c(-c3cccc4cnccc34)[nH]c3ccccc23)cc1,1.9 µM
17,Cc1cc(C)cc(-c2[nH]c3ccccc3c2CCNCCc2ccc(O)cc2)c1,0.2 µM
18,Cn1ccc2cc(-c3[nH]c4ccccc4c3CCNCCCCc3ccc(O)cc3)ccc21,2.8 µM
19,Cc1cc(C)cc(-c2[nH]c3ccccc3c2CCNCCCCCc2ccc(O)cc2)c1,0.2 µM
20,Oc1ccc(CCCCNCCc2c(-c3csc4ccccc34)[nH]c3ccccc23)cc1,0.3 µM

row,Structure (SMILES),IC50
1,COc1cccc(-c2[nH]c3ccccc3c2CCNCCCCc2ccc(O)cc2)c1,0.6 µM
2,Oc1ccc(CCCCNCCc2c(-c3ccc(F)cc3)[nH]c3ccccc23)cc1,11 µM
3,COc1ccc(-c2[nH]c3ccccc3c2CCNC(=O)CCCc2ccc(O)cc2)cc1OC,> 30 µM
4,Cc1cc(C)cc(-c2[nH]c3ccccc3c2CCNCCCCc2ccc(O)cc2)c1,0.05 µM
5,COc1ccc(-c2[nH]c3ccccc3c2CCNC[C@H](O)COc2ccc(O)cc2)cc1OC,3 µM
6,Oc1ccc(CCCCNCCc2c(-c3cccc4ccccc34)[nH]c3ccccc23)cc1,0.13 µM
7,Oc1ccc(CCCCNCCc2c(-c3ccc4ccccc4c3)[nH]c3ccccc23)cc1,2.5 µM
8,Cc1cccc(-c2[nH]c3ccccc3c2CCNCCCCc2ccc(O)cc2)c1C,0.9 µM
9,Oc1ccc(CCCCNCCc2c(-c3ccccc3)[nH]c3ccccc23)cc1,1.3 µM
10,Oc1ccc(CCCCNCCc2c(-c3cc(Cl)cc(Cl)c3)[nH]c3ccccc23)cc1,0.17 µM
11,COc1ccc(-c2[nH]c3ccccc3c2CCNCCCCc2ccc(N)cc2)cc1OC,10 µM
12,COc1ccc(-c2[nH]c3ccccc3c2CCNCc2ccc(O)cc2)cc1OC,20 µM
13,Cc1cc(C)cc(-c2[nH]c3ccccc3c2CCNCCCCCCc2ccc(O)cc2)c1,0.6 µM
14,Cc1ccc(C)c(-c2[nH]c3ccccc3c2CCNCCCCc2ccc(O)cc2)c1,0.4 µM
15,Cc1cccc(-c2[nH]c3ccccc3c2CCNCCCCc2ccc(O)cc2)c1,0.2 µM
16,COc1ccc(-c2[nH]c3ccccc3c2CCNC(=O)CCCc2ccc(N)cc2)cc1OC,30 µM
17,Cc1cc(C)cc(-c2[nH]c3ccccc3c2CCNCCCc2ccc(O)cc2)c1,0.25 µM
18,Oc1ccc(CCCCNCCc2c(-c3cc(C(F)(F)F)cc(C(F)(F)F)c3)[nH]c3ccccc23)cc1,1.5 µM
19,COc1ccc(-c2[nH]c3ccccc3c2CCNC[C@@H](O)COc2ccc(O)cc2)cc1OC,3 µM
20,Cc1cc(C)cc(-c2[nH]c3ccccc3c2CCNCc2ccc(O)cc2)c1,9 µM

# Molecular target: T2, Gonadotropin-releasing hormone receptor (Rattus norvegicus) (UniProt P30969)
# T2 sequence (whole entry): T1 sequence (P30969 whole entry)
# Assay: Percent inhibition of displacement of [125I]- - radio-labeled buserelin from rat Gonadotropin-releasing hormone receptor
# Settings: concentration not given here
row,Structure (SMILES),inhibition
1,COc1ccc(-c2[nH]c3ccccc3c2CCNC(=O)CCCc2ccc(OCc3ccccc3)cc2)cc1OC,0%
